According to patent US7232837B2, “Stereoisomers with high affinity for adrenergic receptors” (McNeil-PPC, Inc., priority 1999, dated 2007):
Where a name gives a salt, the structure may show the parent alone.

Tests used:
[1] = system: New Zealand white rabbits; assay: Intraocular pressure (IOP) after topical application to the rabbit eye; type: in vivo; conditions: for IOP: mean ± S.E.
Procedure: (§1) These diastereomers were administered topically as either 1% or 2% solutions in buffered saline. Pupillary diameter and IOP were measured in all animals over a six hour time period during the day to minimize diurnal variations in IOP and pupil diameter.
(§2) The experiments were performed on adult male New Zealand white rabbits weighing 3.0–6.0 kg. All rabbits were caged individually and maintained on a 12 hr/12 hr light/dark schedule with free access to food and water. All animal procedures were in conformity with the ARVO Resolution on the Use and Care of Animals in Research. All treated rabbits had served as controls by having received a saline treatment on a different day.
(§3) Only one eye received drug treatment. The contralateral eye served as a control. Saline (or PBS) and drug treated rabbits were treated and observed simultaneously. A single dose was given at time zero and IOP and pupil diameter measured at −1.0, −0.5, 0.5, 1, 3 and 5 hrs post-treatment.
IOP measurements were recorded with an Alcon Applanation Pneumotonograph (Surgical Products Division, Alcon Laboratories, Inc., Ft. Worth, Tex.) in rabbits placed in Lucite restraining cages. Initial topical application of a two drop 0.5% proparacaine HCl (Ophthetic®, Allergan Pharmaceuticals, Inc.) was performed on each rabbit.
(§4) Mean and Standard Error values were used to construct time-response and dose-response curves for the treated and contralateral eye of research rabbits. The data were analyzed statistically by an analysis of variance and a Bonferoni's test for significance. P<0.05 was the accepted level of significance.

[2] = system: New Zealand white rabbits; assay: Pupil diameter / mydriasis after topical application to the rabbit eye; type: in vivo; set-up: key to Mydriatic Responses, UNTREATED EYE: 0 = No change; + = 0–2 mm change; ++ = 2–4 mm change; conditions: for Pupil Diameter: mean ± S.E.
Procedure: as §1, §2, §3
Pupil diameter was measured visually at the point of the greatest horizontal diameter with a transparent millimeter ruler. All measurements were made under the identical ambient lighting conditions.
as §4

[3] = 1% topical, drug treated eye (T), 0.5 hr
[4] = 1% topical, drug treated eye (T), 1 hr
[5] = 1% topical, drug treated eye (T), 3 hr
[6] = 1% topical, drug treated eye (T), 5 hr
[7] = 1% topical, drug treated eye (T), −0.5 hr (pre-treatment)
[8] = 1% topical, drug treated eye (T), −1 hr (pre-treatment)
[9] = 1% topical, untreated contralateral eye (U), 0.5 hr
[10] = 1% topical, untreated contralateral eye (U), 1 hr
[11] = 1% topical, untreated contralateral eye (U), 3 hr
[12] = 1% topical, untreated contralateral eye (U), 5 hr
[13] = 1% topical, untreated contralateral eye (U), −0.5 hr (pre-treatment)
[14] = 1% topical, untreated contralateral eye (U), −1 hr (pre-treatment)
[15] = 2% topical, drug treated eye (T), 0.5 hr
[16] = 2% topical, drug treated eye (T), 1 hr
[17] = 2% topical, drug treated eye (T), 3 hr
[18] = 2% topical, drug treated eye (T), 5 hr
[19] = 2% topical, drug treated eye (T), −0.5 hr (pre-treatment)
[20] = 2% topical, drug treated eye (T), −1 hr (pre-treatment)
[21] = 2% topical, untreated contralateral eye (U), 0.5 hr
[22] = 2% topical, untreated contralateral eye (U), 1 hr
[23] = 2% topical, untreated contralateral eye (U), 3 hr
[24] = 2% topical, untreated contralateral eye (U), 5 hr
[25] = 2% topical, untreated contralateral eye (U), −0.5 hr (pre-treatment)
[26] = 2% topical, untreated contralateral eye (U), −1 hr (pre-treatment)

C[C@H](N)[C@H](O)c1cccc(O)c1 [Metaraminol Bitartrate Salt, USP, metaraminol bitartrate salt, reference compound]
effect on IOP (result in words) ([1]; 1% or 2% topical, rabbit): accompanying increase in IOP | IOP [1, 3]: 25 ± 1.2 mmHg | IOP [1, 4]: 24 ± 1.3 mmHg | IOP [1, 5]: 21 ± 2.8 mmHg | IOP [1, 6]: 21 ± 2.7 mmHg | IOP [1, 7]: 19 ± 1.3 mmHg | IOP [1, 8]: 21 ± 2.3 mmHg | IOP [1, 9]: 18 ± 1.7 mmHg | IOP [1, 10]: 18 ± 1.0 mmHg | IOP [1, 11]: 19 ± 1.4 mmHg | IOP [1, 12]: 17 ± 0.8 mmHg | IOP [1, 13]: 16 ± 1.1 mmHg | IOP [1, 14]: 18 ± 1.4 mmHg | IOP [1, 15]: 15 ± 1.1 mmHg | IOP [1, 16]: 16 ± 3.6 mmHg | IOP [1, 17]: 14 ± 2.0 mmHg | IOP [1, 18]: 13 ± 0.8 mmHg | IOP [1, 19]: 14 ± 0.9 mmHg | IOP [1, 20]: 15 ± 0.7 mmHg | IOP [1, 21]: 19 ± 1.1 mmHg | IOP [1, 22]: 18 ± 0.8 mmHg | IOP [1, 23]: 19 ± 1.1 mmHg | IOP [1, 24]: 21 ± 1.6 mmHg | IOP [1, 25]: 15 ± 0.7 mmHg | IOP [1, 26]: 17 ± 1.2 mmHg | mydriasis / pupil diameter (result in words) ([2]; 1% or 2% topical, rabbit): produced mydriasis | Mydriatic Responses, TREATED EYE ([2]; 1% topical): ++ (++ = 2–4 mm change) | Mydriatic Responses, UNTREATED EYE ([2]; 1% topical): 0 | Pupil Diameter [2, 3]: 9 ± 0.5 mm | Pupil Diameter [2, 4]: 9 ± 0.5 mm | Pupil Diameter [2, 5]: 9 ± 0.2 mm | Pupil Diameter [2, 6]: 9 ± 0.5 mm | Pupil Diameter [2, 7]: 7 ± 0.5 mm | Pupil Diameter [2, 8]: 7 ± 0.5 mm | Pupil Diameter [2, 9]: 7 ± 0.5 mm | Pupil Diameter [2, 10]: 7 ± 0.5 mm | Pupil Diameter [2, 11]: 7 ± 0.5 mm | Pupil Diameter [2, 12]: 7 ± 0.5 mm | Pupil Diameter [2, 13]: 7 ± 0.5 mm | Pupil Diameter [2, 14]: 7 ± 0.5 mm | Pupil Diameter [2, 15]: 10 ± 0.2 mm | Pupil Diameter [2, 16]: 10 ± 0.2 mm | Pupil Diameter [2, 17]: 10 ± 0.2 mm | Pupil Diameter [2, 18]: 10 ± 0.2 mm | Pupil Diameter [2, 19]: 5 ± 0.2 mm | Pupil Diameter [2, 20]: 5 ± 0.2 mm | Pupil Diameter [2, 21]: 10 ± 0.2 mm | Pupil Diameter [2, 22]: 10 ± 0.2 mm | Pupil Diameter [2, 23]: 10 ± 0.2 mm | Pupil Diameter [2, 24]: 10 ± 0.2 mm | Pupil Diameter [2, 25]: 5 ± 0.2 mm | Pupil Diameter [2, 26]: 5 ± 0.2 mm

Mephentermine Hemisulfate Salt [reference compound]
IOP [1, 3]: 24 ± 1.0 mmHg | IOP [1, 4]: 24 ± 0.7 mmHg | IOP [1, 5]: 22 ± 0.9 mmHg | IOP [1, 6]: 18 ± 1.6 mmHg | IOP [1, 7]: 18 ± 1.8 mmHg | IOP [1, 8]: 19 ± 1.7 mmHg | IOP [1, 9]: 20 ± 2.1 mmHg | IOP [1, 10]: 17 ± 1.6 mmHg | IOP [1, 11]: 20 ± 1.4 mmHg | IOP [1, 12]: 17 ± 1.5 mmHg | IOP [1, 13]: 17 ± 1.0 mmHg | IOP [1, 14]: 17 ± 1.1 mmHg | IOP [1, 15]: 23 ± 2.2 mmHg | IOP [1, 16]: 23 ± 2.2 mmHg | IOP [1, 17]: 21 ± 2.3 mmHg | IOP [1, 18]: 23 ± 1.5 mmHg | IOP [1, 19]: 19 ± 2.0 mmHg | IOP [1, 20]: 21 ± 2.3 mmHg | IOP [1, 21]: 18 ± 1.6 mmHg | IOP [1, 22]: 16 ± 1.0 mmHg | IOP [1, 23]: 18 ± 0.8 mmHg | IOP [1, 24]: 20 ± 1.7 mmHg | IOP [1, 25]: 17 ± 2.1 mmHg | IOP [1, 26]: 18 ± 2.2 mmHg | Mydriatic Responses, TREATED EYE ([2]; 1% topical): ++ (++ = 2–4 mm change) | Mydriatic Responses, UNTREATED EYE ([2]; 1% topical): 0 | Pupil Diameter [2, 3]: 10 ± 0.2 mm | Pupil Diameter [2, 4]: 10 ± 0.2 mm | Pupil Diameter [2, 5]: 10 ± 0.2 mm | Pupil Diameter [2, 6]: 10 ± 0.2 mm | Pupil Diameter [2, 7]: 7 ± 0.2 mm | Pupil Diameter [2, 8]: 7 ± 0.2 mm | Pupil Diameter [2, 9]: 7 ± 0.2 mm | Pupil Diameter [2, 10]: 7 ± 0.2 mm | Pupil Diameter [2, 11]: 7 ± 0.2 mm | Pupil Diameter [2, 12]: 7 ± 0.2 mm | Pupil Diameter [2, 13]: 7 ± 0.2 mm | Pupil Diameter [2, 14]: 7 ± 0.2 mm | Mydriatic Responses, TREATED EYE ([2]; 2% topical): + (+ = 0–2 mm change) | Mydriatic Responses, UNTREATED EYE ([2]; 2% topical): 0 | Pupil Diameter [2, 15]: 7 ± 0.7 mm | Pupil Diameter [2, 16]: 8 ± 0.7 mm | Pupil Diameter [2, 17]: 6 ± 0.4 mm | Pupil Diameter [2, 18]: 6 ± 0.4 mm | Pupil Diameter [2, 19]: 6 ± 0.3 mm | Pupil Diameter [2, 20]: 6 ± 0.3 mm | Pupil Diameter [2, 21]: 6 ± 0.3 mm | Pupil Diameter [2, 22]: 6 ± 0.3 mm | Pupil Diameter [2, 23]: 6 ± 0.3 mm | Pupil Diameter [2, 24]: 6 ± 0.3 mm | Pupil Diameter [2, 25]: 6 ± 0.4 mm | Pupil Diameter [2, 26]: 6 ± 0.4 mm
